# Values of other authors as cited in patent US12138268B2, “Treatment of erectile dysfunction and other indications” (Strategic Science & Technologies, LLC, priority 2009, dated 2024).
structure (smiles),measurement,value
CCCOc1ccc(S(=O)(=O)N2CCN(CCO)CC2)cc1-c1nc2c(CCC)cn(CC)c2c(=O)[nH]1 [mirodenafil],pKa,6.0
